Measured values from article PMC7914897, “Cytotoxic Potential of a-Azepano- and 3-Amino-3,4-SeCo-Triterpenoids” (International Journal of Molecular Sciences, 2021).
Like-named read-outs stand apart in the source and are kept apart here.

Experiments:
[1] = system: A2780 (ovarian carcinoma); test: SRB cytotoxicity assay, 72 h; assay type: cell-based, human; conditions: A2780, 72 h, cut-off 30 µM
Description: (§1) The cytotoxicity of compounds 1–20 was evaluated by means of a colorimetric sulforhodamine B (SRB) assay. For all compounds, the EC50 values were determined for the human tumor cell lines A375 (malignant melanoma), HT29 (colorectal carcinoma), MCF-7 (breast carcinoma), A2780 (ovarian carcinoma), FaDu (hypopharyngeal carcinoma), and NIH 3T3 (non-malignant mouse fibroblasts).
(§2) In short, exponentially growing cells were seeded into 96-well plates on day 0 at the appropriate cell densities to prevent confluence of the cells during the period of experiment. After 24 h, the cells were treated with serial dilutions of the compounds (0–30 µM) for 72 h. The final concentration of DMSO never exceeded 0.5%, which was non-toxic to the cells. After a 72 h treatment, the supernatant medium from the 96-well plates was discarded, and the cells were fixed with 10% TCA. For a thorough fixation, the plates were allowed to rest at 4 °C. After fixation, the cells were washed in a strip washer. The washing was done four times with water using alternate dispensing and aspiration procedures. The plates were then dyed with 100 µL of 0.4% SRB for about 20 min. After dying, the plates were washed with 1% acetic acid to remove the excess of the dye and allowed to air-dry overnight. Tris base solution (200 µL, 10 mM) was added to each well and absorbance was measured at λ = 570 nm (using a 96 well plate reader, Tecan Spectra, Crailsheim, Germany). The percentages of surviving cells relative to untreated controls were determined.

[2] = system: A375 (malignant melanoma); test: SRB cytotoxicity assay, 72 h; assay type: cell-based, human; conditions: A375, 72 h, cut-off 30 µM
Description: as §1, §2

[3] = system: FaDu (hypopharyngeal carcinoma); test: SRB cytotoxicity assay, 72 h; assay type: cell-based, human; conditions: cut-off 30 µM
Description: as §1, §2

[4] = system: HT29 (colorectal carcinoma); test: SRB cytotoxicity assay, 72 h; assay type: cell-based, human; conditions: HT29, 72 h, cut-off 30 µM
Description: as §1, §2

MCF-7 (breast carcinoma) = test: SRB cytotoxicity assay, 72 h; assay type: cell-based, human; conditions: MCF-7, 72 h, cut-off 30 µM
Description: as §1, §2

[5] = system: NIH 3T3 (non-malignant mouse fibroblasts); test: SRB cytotoxicity assay, 72 h; assay type: cell-based; conditions: NIH 3T3, 72 h, cut-off 30 µM
Description: as §1, §2

CNS cancer subpanel = test: NCI-60 screen, subpanel; conditions: Homo sapiens; for IC (TGI): 48 h, read-out: TGI MG_MID; for GI50: read-out: GI50 MG_MID; for CC50: read-out: LC50 MG_MID
Ovarian Cancer subpanel = test: NCI-60 screen, subpanel; conditions: Homo sapiens; for IC (TGI): 48 h, read-out: TGI MG_MID; for GI50: read-out: GI50 MG_MID
[6] = system: A549/ATCC (NSC lung cancer); test: NCI-60 screen (SRB, 48 h); conditions: Homo sapiens; for GI50: A549; for IC (TGI): A549, 48 h, read-out: TGI
[7] = system: NCI-H23 (NSC lung cancer); test: NCI-60 screen (SRB, 48 h); conditions: Homo sapiens; for GI50: NCI-H23; for IC (TGI): NCI-H23, 48 h, read-out: TGI
[8] = system: NCI-H322M (NSC lung cancer); test: NCI-60 screen (SRB, 48 h); conditions: Homo sapiens; for IC (TGI): 48 h, read-out: TGI
SW-620 (Colon cancer) = test: NCI-60 screen (SRB, 48 h); conditions: Homo sapiens; for GI50: SW-620; for IC (TGI): SW-620, 48 h, read-out: TGI
SF-268 (CNS cancer) = test: NCI-60 screen (SRB, 48 h); conditions: Homo sapiens; for GI50: SF-268; for IC (TGI): SF-268, 48 h, read-out: TGI
SF-539 (CNS cancer) = test: NCI-60 screen (SRB, 48 h); conditions: Homo sapiens; for GI50: SF-539; for IC (TGI): SF-539, 48 h, read-out: TGI
M14 (Melanoma) = test: NCI-60 screen (SRB, 48 h); conditions: Homo sapiens; for GI50: M14; for IC (TGI): M14, 48 h, read-out: TGI
UACC-62 (Melanoma) = test: NCI-60 screen (SRB, 48 h); conditions: Homo sapiens; for GI50: UACC-62; for IC (TGI): UACC-62, 48 h, read-out: TGI; for CC50: UACC-62, read-out: LC50
OVCAR-8 (Ovarian cancer) = test: NCI-60 screen (SRB, 48 h); conditions: Homo sapiens; for GI50: OVCAR-8; for IC (TGI): OVCAR-8, 48 h, read-out: TGI
ACHN (Renal cancer) = test: NCI-60 screen (SRB, 48 h); conditions: for IC (TGI): 48 h, read-out: TGI
CAKI-1 (Renal cancer) = test: NCI-60 screen (SRB, 48 h); conditions: for GI50 / IC (TGI) / CC50: Homo sapiens; for GI50: CAKI-1; for IC (TGI): CAKI-1, 48 h, read-out: TGI; for CC50: CAKI-1, read-out: LC50
SN12C (Renal cancer) = test: NCI-60 screen (SRB, 48 h); conditions: Homo sapiens; for IC (TGI): 48 h, read-out: TGI
TK-10 (Renal cancer) = test: NCI-60 screen (SRB, 48 h); conditions: for GI50 / IC (TGI) / CC50: Homo sapiens; for GI50: TK-10; for IC (TGI): TK-10, 48 h, read-out: TGI; for CC50: TK-10, read-out: LC50
PC-3 (Prostate cancer) = test: NCI-60 screen (SRB, 48 h); conditions: Homo sapiens; for GI50: PC-3; for IC (TGI): PC-3, 48 h, read-out: TGI
HS 578T (Breast cancer) = test: NCI-60 screen (SRB, 48 h); conditions: Homo sapiens; for IC (TGI): 48 h, read-out: TGI
[9] = system: panel of approximately 60 cancer cell lines; test: NCI-60 screen (SRB, 48 h), full panel; conditions: for activity at 10 µM / IC (TGI) / GI50 / CC50: Homo sapiens; for activity at 10 µM / IC (TGI): 48 h; for IC (TGI): read-out: TGI MG_MID60, average over all cell lines; for CC50: read-out: LC50 MG_MID60, average over all cell lines
[10] = read-out: GI50 against all human tumor cell lines
[11] = read-out: GI50 against the most sensitive cell lines

## CC1(C)CC[C@]23CC[C@]4(C)[C@H](CC[C@@H]5[C@@]6(C)CCCNC(C)(C)[C@@H]6CC[C@]54C)[C@H]2[C@H]1OC3 [Compound 7, Azepanoallobetulin]
[1]
  EC50: n.s.
[2]
  EC50: n.s.
[3]
  EC50: n.s.
[4]
  EC50: n.s.
MCF-7 (breast carcinoma)
  EC50: n.s.
[5]
  EC50: n.s.
CNS cancer subpanel
  IC (TGI): 3510 nM
  GI50: 1580 nM
  CC50: 10200 nM
Ovarian Cancer subpanel
  IC (TGI): 3990 nM
  GI50: 1860 nM
Ovarian Cancer subpanel; read-out: LC50 MG_MID
  CC50: 12300 nM
[6]
  GI50: 1810 nM
  IC (TGI): 3430 nM
[6]; A549, read-out: LC50
  CC50: 6500 nM
[7]
  GI50: 1760 nM
  IC (TGI): 3500 nM
[7]; NCI-H23, read-out: LC50
  CC50: 6950 nM
[8]
  GI50: 1640 nM
  IC (TGI): 3030 nM
[8]; read-out: LC50
  CC50: 5600 nM
SW-620 (Colon cancer)
  GI50: 1750 nM
  IC (TGI): 3490 nM
SW-620 (Colon cancer); SW-620, read-out: LC50
  CC50: 6950 nM
SF-268 (CNS cancer)
  GI50: 2040 nM
  IC (TGI): 5310 nM
SF-268 (CNS cancer); SF-268, read-out: LC50
  CC50: 31500 nM
SF-539 (CNS cancer)
  GI50: 1640 nM
  IC (TGI): 3070 nM
SF-539 (CNS cancer); SF-539, read-out: LC50
  CC50: 5780 nM
M14 (Melanoma)
  GI50: 1770 nM
  IC (TGI): 3310 nM
M14 (Melanoma); M14, read-out: LC50
  CC50: 6190 nM
UACC-62 (Melanoma)
  GI50: 1790 nM
  IC (TGI): 3210 nM
  CC50: 5770 nM
OVCAR-8 (Ovarian cancer)
  GI50: 1870 nM
  IC (TGI): 3660 nM
ACHN (Renal cancer); Homo sapiens
  GI50: 1710 nM
  IC (TGI): 3080 nM
ACHN (Renal cancer); Homo sapiens, read-out: LC50
  CC50: 5550 nM
CAKI-1 (Renal cancer); CAKI-1, 1 dose 10 µM
  Growth % of the Most Sensitive Cell Lines: −92.03%
CAKI-1 (Renal cancer)
  GI50: 1620 nM
  IC (TGI): 2970 nM
  CC50: 5450 nM
SN12C (Renal cancer)
  GI50: 1680 nM
  IC (TGI): 3200 nM
SN12C (Renal cancer); read-out: LC50
  CC50: 6100 nM
TK-10 (Renal cancer)
  GI50: 1890 nM
  IC (TGI): 3610 nM
  CC50: 6910 nM
PC-3 (Prostate cancer)
  GI50: 1610 nM
  IC (TGI): 3170 nM
PC-3 (Prostate cancer); PC-3, read-out: LC50
  CC50: 6250 nM
HS 578T (Breast cancer)
  GI50: 1960 nM
  IC (TGI): 4690 nM
HS 578T (Breast cancer); read-out: LC50
  CC50: 2440 nM
[9]; 1 dose 10 µM
  Positive Cytostatic Effect (cell lines with percent growth 0 to 50 / total): 16/59
  Positive Cytotoxic Effect (cell lines with percent growth < 0 / total): 41/58
  number of cancer cell lines the compound was active against: 52 cell lines
[9]; read-out: Mean Growth, %
  activity at 10 µM: -27.3%
[9]; read-out: Range of Growth, %
  activity at 10 µM: -99.4 to 76.4%
[9]
  IC (TGI): 3640 nM
  CC50: 17200 nM
[9]; read-out: GI50 MG_MID60
  GI50: 1680 nM
[9]; [10]
  GI50: < 3000 nM
[9]; [11]
  GI50: 200 to 940 nM

## C=C(C)[C@@H]1CC[C@]2(C(=O)N[C@H](CO)Cc3ccccc3)CC[C@]3(C)[C@H](CC[C@@H]4[C@@]5(C)CCCNC(C)(C)[C@@H]5CC[C@]43C)[C@@H]12 [Compound 11]
[1]; Homo sapiens, read-out: EC50
  EC50: 780 ± 400 nM
[2]; Homo sapiens, A-375, 72 h, read-out: EC50
  EC50: 1000 ± 100 nM
[3]; Homo sapiens, read-out: EC50
  EC50: 880 ± 100 nM
[4]; Homo sapiens, HT-29, read-out: EC50
  EC50: 1020 ± 30 nM
MCF-7 (breast carcinoma); Homo sapiens, MCF7, read-out: EC50
  EC50: 1170 ± 200 nM
[5]; Mus musculus, NIH3T3, read-out: EC50
  EC50: 1230 ± 300 nM
CNS cancer subpanel
  IC (TGI): 3080 nM
  GI50: 1510 nM
  CC50: 5720 nM
Ovarian Cancer subpanel
  IC (TGI): 2620 nM
  GI50: 1200 nM
[6]
  GI50: 960 nM
  IC (TGI): 2450 nM
[7]
  GI50: 1600 nM
  IC (TGI): 3170 nM
[8]
  GI50: 1550 nM
  IC (TGI): 2790 nM
SW-620 (Colon cancer)
  GI50: 850 nM
  IC (TGI): 2260 nM
SF-268 (CNS cancer)
  GI50: 1560 nM
  IC (TGI): 3390 nM
SF-539 (CNS cancer)
  GI50: 1730 nM
  IC (TGI): 3190 nM
M14 (Melanoma)
  GI50: 740 nM
  IC (TGI): 2190 nM
UACC-62 (Melanoma)
  GI50: 1760 nM
  IC (TGI): 3390 nM
  CC50: 6520 nM
OVCAR-8 (Ovarian cancer)
  GI50: 1120 nM
  IC (TGI): 2800 nM
ACHN (Renal cancer); 1 dose 10 µM
  Growth % of the Most Sensitive Cell Lines: −95.87%
ACHN (Renal cancer); Homo sapiens
  GI50: 1710 nM
  IC (TGI): 3160 nM
CAKI-1 (Renal cancer)
  GI50: 1490 nM
  IC (TGI): 2890 nM
  CC50: 5600 nM
SN12C (Renal cancer)
  GI50: 1810 nM
  IC (TGI): 3550 nM
TK-10 (Renal cancer)
  GI50: 1610 nM
  IC (TGI): 3080 nM
  CC50: 5890 nM
TK-10 (Renal cancer); TK-10, 1 dose 10 µM
  Growth % of the Most Sensitive Cell Lines: −94.69%
PC-3 (Prostate cancer)
  GI50: 1160 nM
  IC (TGI): 2620 nM
HS 578T (Breast cancer)
  GI50: 1610 nM
  IC (TGI): 3780 nM
[9]; 1 dose 10 µM
  number of cancer cell lines the compound was active against: effective against the all NCI-60 cancer cell line panel
[9]; read-out: Mean Growth, %
  activity at 10 µM: -83.1%
[9]; read-out: Range of Growth, %
  activity at 10 µM: -97.9 to -46.7%
[9]
  IC (TGI): 2640 nM
  CC50: 5620 nM
[9]; read-out: GI50 MG_MID60
  GI50: 1290 nM
[9]; [10]
  GI50: < 3000 nM
[9]; [11]
  GI50: 200 to 940 nM
